The record followed here is US11103526B2, “Methods for treatment using small molecule potassium-sparing diuretics and natriuretics” (University of Pittsburgh—Of the Commonwealth System of …, priority 2016, dated 2021).

One data set concerns anesthetized rats. Put plainly: Acute cardiovascular and renal effects of an intravenous bolus in anesthetized rats (Example 1). It counts as in vivo, male Sprague-Dawley rats. The following applies: 33.5 μmoles/kg intravenous bolus; for urine volume increase: Period 3 (85-115 min) compared with Period 1 (0-30 min); for glucose excretion increase / potassium excretion decrease / sodium excretion increase: Period 3 compared with Period 1. On the procedure:
Animals. This study employed male Sprague-Dawley rats (Charles River; Wilmington, Mass.) that were approximately 16 weeks old. The Institutional Animal Care and Use Committee approved all procedures.
The rats were anesthetized with Inactin (90 mg/kg, i.p.) and placed on an isothermal pad, and body temperature was monitored with a rectal probe thermometer and maintained at 37° C. with a heat lamp. […] A PE-50 cannula was inserted into the jugular vein, and an infusion of 0.9% saline at 25 μl/min was initiated. A PE-10 tubing was placed in the left ureter for urine collection. […] The dose was selected based on preliminary experiments with 8-aminoguanosine. […] Each group of rats (n of at least 6) received only one treatment. Ten minutes after the test agents were administered, urine was collected for another 30 minutes (Period 2: […] into the protocol).
Statistics. Absolute values are presented as the mean±SEM. Fold-increases were calculated as follows: Period 3 value÷Period 1 value. Statistical analyses were performed using analysis of variance (ANOVA) followed by Fisher's Least Significant Difference (LSD) test if the overall effects or interactions in the ANOVA were significant. P<0.05 was considered statistically significant.

Another data set concerns DOCA-salt hypertension. In words: DOCA-salt hypertension, long-term MABP by radiotelemetry. The format is in vivo, rats. As to conditions: for development of DOCA-salt hypertension / basal MABP: 5 mg/kg/day; for development of DOCA-salt hypertension: initiated 13 days before inducing DOCA-salt hypertension; for basal MABP: pretreatment 13 days before inducing DOCA-salt hypertension. On the procedure:
This example describes the effects of 8-aminoguanosine and 8-aminoguanine on DOCA-salt hypertension. Rats were instrumented for long-term and continuous measurement of arterial blood pressure by radiotelemetry as recently described (Jackson E K et al., Hypertension, 65:238-249, 2015). After at least 20 days of from the time of radiotransmitter implantation, hypertension was induced in the animals by removing one kidney, subcutaneously administering deoxycorticosterone acetate (30 mg/kg twice weekly), and providing 1% NaCl as drinking water (i.e., DOCA-salt hypertension). At this time, some animals were also randomized to receive either drinking water without 8-aminoguanosine or drinking water containing 8-aminoguanosine (10 mg/kg/day). In two other experiments, 8-aminoguanosine ([…]) or 8-aminoguanine (5 mg/kg/day) was administered 13 days before DOCA-salt hypertension was induced.
Results. Three studies were conducted to assess the effects of 8-aminoguanosine and 8-aminoguanine on DOCA-salt hypertension. In one study, DOCA-salt hypertension was induced at the same time that treatment with 8-aminoguanosine (10 mg/kg/day) was initiated. In two other studies, treatment with 8-aminoguanosine (5 mg/kg/day) or 8-aminoguanine (5 mg/kg/day) was initiated 13 days before inducing DOCA-salt hypertension. Treatments were maintained for the duration of the studies, and the MABP was continuously monitored by radiotelemetry. As shown in FIGS. 10A-10C, 8-aminoguanosine at 10 mg/kg/day prevented DOCA-salt hypertension.

The test system of data set [1] is RBCs from SCD patients (HbSS). Put plainly: Hypoxia-induced sickling of RBCs from SCD patients. It counts as cell-based, human. On the procedure:
In addition to causing PH in SCD patients and HIV-infected patients, the contribution of PNPase to RBC sickling in SCD patients was assessed. Fresh RBCs were obtained from two adult SCD patients (HbSS); the RBCs were diluted in F-10 HAM buffer to a final hematocrit of 4%. Next, glucose was added for a final concentration of 5.5 mmol/L, and the samples were incubated at room air/temperature in 12-well plates. The RBCs were then treated with either vehicle, 8-aminoguanosine (2 μmol/L), inosine (2 μmol/L), or an 8-aminoguanosine and inosine combination. After 1.5 hours, the RBCs were placed in a hypoxic glove box and maintained under hypoxia (5% 02) for 3 hours, while undergoing mild agitation. At the end of incubation, to prevent reoxygenation-derived morphological changes, the RBCs were fixed under hypoxic conditions in the hypoxic glove box. The samples were assayed for percent sickling.

The test system of data set [2] is Sugen 5416+hypoxia-induced PH. In words: Sugen 5416+hypoxia-induced angioproliferative pulmonary hypertension. It counts as in vivo, female Sprague Dawley rats. As to conditions: 30 mg/kg/day in drinking water. The source says: A total of 36 female Sprague Dawley rats were used to determine whether administration of the PNPase inhibitor 8-aminoguanosine attenuates development of angioproliferative PH in animals with Sugene5416+hypoxia-induced PH. The animals were randomly assigned to receive subcutaneous injection of vehicle [(control group; n=8; 0.5% (w/v) carboxymethylcellulose sodium, 0.9% (w/v) sodium chloride, 0.4% (v/v) polysorbate 80, and 0.9% (v/v) benzyl alcohol in deionized water] or subcutaneous injection of SU5416 20 mg/kg (n=16; SU+Hx group). A subset of the SU5416-treated animals received 8-aminoguanosine (30 mg/kg/day in drinking water (n=12; 8-amino-guanosine group). On day 0, all SU5416-treated animals (SU+Hx and 8-aminoguanosine groups) were exposed to chronic hypoxia for 3 weeks. The animals were placed into normobaric plexiglas chambers (BioSpherix, Redfield, N.J., USA). The chambers were continuously flushed with nitrogen to maintain 10% oxygen and low CO2 concentrations (<0.5%) with the O2 and CO2 concentrations continuously monitored (PROOX110, BioSpherix oxygen controller and LB-2 CO2 analyzer, Sensormedics). At day 21, the animals were returned to a normoxic environment. Three weeks later (day 42), the animals were anesthetized and instrumented for RVPSP measurements. A PE-240 polyethylene catheter was inserted into the trachea to facilitate breathing, and the SPR-513 catheter (Millar Instruments) was inserted into right jugular vein and advanced into RV for RVPSP measurements. After 20-30-minutes of stabilization, RVPSP was recorded over 20 minutes. The animals were euthanized by anesthetic overdose, and the heart and lungs were collected for morphometric analyses.

Data set [3] can be described thus: Protocol 2: renal microdialysate and urine levels after intravenous bolus (Example 12). The following applies: after 33.5 μmoles/kg intravenous bolus.
Procedure: Rats were prepared in a similar fashion to that described in Protocol 1, but with modifications. Specifically, microdialysis probes were inserted into the cortex and medulla of the right kidney and were perfused at 2 μl/min with 0.9% saline. The microdialysis probes used in this protocol were from Bioanalytical Systems (West Lafayette, Ind.; CMA/20 microdialysis probe 4 mm; outer diameter of 0.5 mm; 20,000 dalton membrane cut-off). After initiating the probe perfusions, the infusion rate of 0.9% saline via the jugular vein was reduced to 25 μl/min to avoid volume overload. The rats then stabilized for two hours for the kidney to recover from the trauma induced by the probe insertions.
Next, microdialysate from the renal cortex and medulla as well as urine were collected for 30 minutes, and MABP and HR were time averaged during this first (basal) period. Rats were then randomized to receive 8-aminoguanosine, 8-aminoguanine, or vehicle using the dose and manner described for Protocol 1. Ten minutes after the treatments, microdialysate from the renal cortex and medulla as well as urine were again collected for 30 minutes, and MABP and HR were time averaged during this treatment period. After 15 minutes, this procedure was repeated. 8-Aminoguanosine and 8-aminoguanine were measured in urine and microdialysate using ultra-performance liquid chromatography-tandem mass spectrometry (LC-MS/MS) as described below.
Assay for 8-Aminoguanosine and 8-Aminoguanine. The purines in the urine and microdialysate were measured by LC-MS/MS using a method similar to a previously described method (Jackson et al., J Biol Chem 284:33097-33106, 2009), but with modifications. Purines were separated using reversed-phase ultra-performance liquid chromatography (Waters UPLC BEH C18 column, 1.7 μm beads; 2.1×150 mm; Milford, Mass.) and quantified by selected reaction monitoring using a triple quadrupole mass spectrometer (TSQ Quantum-Ultra; ThermoFisher Scientific, San Jose, Calif.) with a heated electrospray ionization source. The mobile phase included a linear gradient flow rate (300 uL/min) of 1% acetic acid in water (pH, 3; mobile phase A) as well as 100% methanol (mobile phase B) and was delivered with a Waters Acquity ultra-performance liquid chromatographic system. […]
Microdialysis probes were inserted into the renal cortex and medulla of anesthetized rats; the rats stabilized for 2 hours and were then administered an intravenous bolus of vehicle (control group), 8-aminoguanosine (33.5 μmoles/kg), or 8-aminoguanine (33.5 μmoles/kg). The levels of these compounds were then measured in the renal cortex and medulla as well as in the urine using LC-MS/MS.

Take `Nc1nc2c(nc(N)n2[C@@H]2O[C@H](CO)[C@@H](O)[C@H]2O)c(=O)[nH]1` [8-aminoguanosine, 8-Aminoguanosine]: in the data set on anesthetized rats, the “effect on heart rate (HR)” value is “did not affect”, the “effect on mean arterial blood pressure (MABP)” value was “did not affect”, the “effect on mesenteric blood flow (MBF)” value is “modestly increased” and the “effect on renal blood flow (RBF)” value was “decreased”. In the data set with anesthetized rats, the urine volume increase is recorded as 4.2 fold, the glucose excretion increase is given as 12.1 fold, the potassium excretion decrease came to 69.1% and the sodium excretion increase was 26.6 fold. Besides, in the data set with DOCA-salt hypertension, the “development of DOCA-salt hypertension” value is given as “markedly attenuated” and the “basal MABP” value was “did not affect”. Besides, the “DOCA-salt hypertension (MABP)” value with DOCA-salt hypertension (10 mg/kg/day in drinking water, started when hypertension was induced) is “prevented”. Also, the “hypoxia-induced sickling of RBCs” value in data set [1] (2 μmol/L, 1.5 hours pre-incubation, then hypoxia for 3 hours) was “significantly reduced”. For the same compound, in data set [1] (8-aminoguanosine (2 μmol/L) combined with inosine (2 μmol/L)), the “effect on the inhibitory effects of inosine on hypoxia-induced sickling” value was “potentiated”. In data set [2] (day 42), the Fulton index entry was “decreased”, the RV contractility result is on record as “improved”, the “RV end diastolic pressure (RV EDP)” value is on record as “decreased” and the “right ventricular peak systolic pressure (RVPSP)” value is reported as “significantly reduced”. For the same compound, in data set [2] (histopathology), the “grade 6 necrotizing arteritis lesions” value is “prevented sporadic occurrence”, the occlusive vascular lesions entry is on record as “reduced the number” and the plexiform vascular lesions entry was “reduced the number”.
`Nc1nc2[nH]c(N)nc2c(=O)[nH]1` [8-aminoguanine, 8-Aminoguanine]: in the data set on anesthetized rats, the “effect on heart rate (HR)” value is “did not affect”, the “effect on mean arterial blood pressure (MABP)” value is recorded as “did not affect”, the “effect on mesenteric blood flow (MBF)” value is recorded as “did not affect” and the “effect on renal blood flow (RBF)” value is given as “did not affect”. In addition, in the data set on anesthetized rats, the urine volume increase amounted to 3.6 fold, the glucose excretion increase is 12.2 fold, the potassium excretion decrease is recorded as 71.0% and the sodium excretion increase is 17.2 fold. In the data set on DOCA-salt hypertension, the “development of DOCA-salt hypertension” value is on record as “markedly attenuated” and the “basal MABP” value is reported as “did not affect”. Besides, in data set [3] (microdialysate), the “interstitial levels of 8-aminoguanine in the renal cortex” value was “immediate, sustained, similar, and large increases”; the “interstitial levels of 8-aminoguanine in the renal medulla” value was “immediate, sustained, similar, and large increases”. Also, in data set [3] (urine), the “urinary levels of 8-aminoguanine” value is “immediate, sustained, similar, and large increases”; the “urinary levels of 8-aminoguanosine” value was “did not affect”.
